≈ marks a conversion by molar mass, not a printed value. Where “and” joins values, the source holds several entries; their conditions need not be identical. Equal values may be shown once. Entries after “also recorded” stand apart in the source; their conditions may differ.
What was measured:
Hepatitis B virus [1] = assay: Effect on synthesis of antigen markers in persistently infected human HEP G2 cell cultures (Table 7); type: cell-based; details: for activity at 10 µM: Hepatitis B virus, HepG2, 216 h
In short: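 Persistently infected HepG2 cells treated with compound for nine days at 37° C. Culture medium then harvested: HBsAg and HBeAg quantified by EIA, virion DNA by hybridisation-based DNA measurement. Sensitivity cut-off 0.1 pg DNA/ml medium.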

[2] = Cytotoxicity in HBV persistently infected human HEP G2 cells, neutral red dye uptake (Table 5); type: cell-based; details: human, hep-g2 cells, % of Control Neutral Red Dye Uptake
In short: (§1)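 HBV-transfected HEP-G2 monolayers in RPMI-1640 were given compound at four serial concentrations in triplicate for nine days at 37 °C, with periodic medium replacement. Toxicity from 0.01% neutral red uptake (A510), as percent of nine untreated control wells on the same plate.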

[3] = system: HEP G2 cells persistently infected with HBV; assay: as above; type: cell-based
In short: as §1

Hepatitis B virus [4] = assay: Anti-hepatitis B virus activity in HEP-G2 cells persistently infected with HBV (Table 2); type: cell-based; details: for activity at 10 µM: Hepatitis B virus, HepG2, 216 h
Experimental: HEP-G2 cells persistently infected with HBV were treated daily with fresh D-MEM containing 20% FBS and 10 μM compound. After 9 days incubation and treatment, the overlay medium was harvested to assay the quantity of Hepatitis B virus s antigen (HBsAg) and HBeAg by EIA (Abbott Laboratories). The overlay medium was diluted to levels of antigen in the linear range of the assay. Standard curves using dilutions of positive HBsAg and HBeAg controls were included in each assay. Virion DNA was assayed using the method set forth in Korba and Gerin, Antiviral Res., 19, 5,5-70 (1992), incorporated by reference herein. HBV DNA was extracted from the overlay medium containing virus particles and analyzed by a slot-blot hybridization technique using ^32 P-labelled 3.2 Kb Eco R1 HBV DNA fragment by comparisons to HBV standards present on nitrocellulose filters using an AMBIS beta scanner. EC90 values (90% effective concentration, i.e., drug concentration which induces a 90% decrease in the levels of HBV DNA replication intermediates in treated versus control cells) were calculated by linear regression analysis. The relative levels of HBsAg, HBeAg and virion DNA were calulated as a percentage of the average levels obtained from the untreated controls.

Hepatitis B virus [5] = assay: Effect of alkyl lipids on HBV replication in HBV persistently infected human HEP G2 cells (Table 6); type: cell-based; details: for Intracellular HBV DNA, Mono (episomal 3.2-3.8 Kb HBV genomes) / Intracellular HBV DNA, RI (replication intermediates): nine days
In short: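 Persistently HBV-infected HepG2 cells exposed to compound for nine days at 37 °C, intracellular HBV DNA analysed 24 h after day nine. Episomal 3.2-3.8 Kb genomes and replication intermediates normalized to integrated HBV DNA; virion DNA detection cut-off 0.1 pg DNA/ml culture medium.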

[6] = Cytotoxicity of alkyl lipids, neutral red dye uptake (Table 1); type: cell-based; details: human, hep-g2 cells
Text: Initially, evaluations of the alkyl lipids were done to determine whether the compounds were cytotoxic to the cells at concentrations having anti-HBV activity. The assay methodology is szt forth in Korba and Germ, Antiviral Res., 19, 55-70 (1992), incorporated by reference herein. Briefly, these cell cytotoxicity evaluations were done in 96-well plates seeded with HEP-G2 cell monolayers. The hepatoblastoma cell line HEP-G2 transfected with a plasmid carrying the gene that confers resistance to […] and four 5'-3' tandem copies of the Hepatitis B virus genome was obtained from Dr. George Acs. Proc. Natl. Acad. Sci. USA, 84, 1005-1009 (1987). Serial concentrations of compound were added to the RPMI-1640 growth medium and the growth medium was added to the 96-well plates containing the cell monolayers. The cells were incubated for a total of nine days at 37° C. The compound-containing medium was periodically replaced. Each compound was tested at four serial concentrations in triplicate. After nine days of treatment and incubation, 0.01% neutral red dye (Sigma, Inc.) was added to the overlay medium. Cell cytotoxicity was quantitated by measuring the average A510. Values in Table 1 represent the percentage of average A510 values (±standard deviation) relative to nine non-treated control wells.

[7] = system: mouse precursor erythrocyte (CFU-E); assay: Cytotoxicity: inhibition of mouse precursor erythrocyte (CFU-E) colony formation; type: cell-based; details: Mus musculus, Erythrocyte, read-out: inhibitory concentration 50% for colony formation (IC50)
Experimental: CP-51 and AZT were assayed for cytotoxicity by inhibition of mouse precursor erythrocyte (CFU-E) and granulocyte/macrophage (CFU-GM) cell colony formation.

[8] = system: granulocyte/macrophage (CFU-GM); assay: Cytotoxicity: inhibition of mouse granulocyte/macrophage (CFU-GM) colony formation; type: cell-based; details: read-out: inhibitory concentration 50% for colony formation (IC50)
Experimental: CP-51 and AZT were assayed for cytotoxicity by inhibition of mouse precursor erythrocyte (CFU-E) and granulocyte/macrophage (CFU-GM) cell colony formation. Mouse bone marrow precursor cells were suspended in soft-agar-RPMI-1640 medium supplmented with cell growth factors and serial concentrations of alkyl lipid.

Friend-Leukemia virus = assay: Inhibition of retrovirus-induced splenomegaly in Friend-Leukemia virus infected mice (Table 9); type: in vivo
Experimental: Mice were infected I.P. with Friend-Leukemia virus and not treated or treated I.P. with daily doses of phospholipid. After 14 days infection and treatment, the mice were sacrificed, the spleens were removed and weighed to determine the percentage, of control splenomegaly. […] Even a single dose of 25 mg/kg CP-51 inhibited splenomegaly by 36%.

In the case of `CCCCCCCCCCCCCCCC(=O)NCC(COP(=O)([O-])OCC[N+](C)(C)C)OCC` (racemic) [CP-49, rac-3-hexadecanamido-2-ethoxy-1-propylphosphocholine], the “Relative Level of HBeAg” value (Hepatitis B virus [1]; 10 μM, nine days, 12960 min) is reported as 26 % of Untreated Control, the “Relative Level of HBsAg” value (Hepatitis B virus [1]; 10 μM, nine days, 12960 min) is reported as 113 % of Untreated Control and the “Relative Level of Virion DNA” value (Hepatitis B virus [1]; 10 μM, nine days, 12960 min) is reported as 1 % of Untreated Control. For the same compound, the activity at 10 µM (Hepatitis B virus [1]; read-out: Relative Level of HBeAg, 10 μM, nine days) was 33%, the activity at 10 µM (Hepatitis B virus [1]; read-out: Relative Level of HBsAg, 10 μM, nine days) was 116% and the activity at 10 µM (Hepatitis B virus [1]; read-out: Relative Level of Virion DNA, 10 μM, nine days) was 1%. For the same compound, the “effect on HBsAg levels released into the culture medium” value (Hepatitis B virus [1]; in words) was “None of the compounds tested”, the “reduction in HBeAg and virion DNA levels” value (Hepatitis B virus [1]; in words) was “caused a reduction; also recorded: most active compounds in suppressing HBeAg and virion DNA levels” and the viability at 216 h, 3 µM [2] was 99 ± 3%. For the same compound, the viability at 216 h, 10 µM [2] was 97 ± 2%, the viability at 216 h, 100 µM [2] was 45 ± 4% and the “Cell toxicity (greater than 50% depression of dye uptake)” value ([3]; at concentrations with strong or moderate antiviral activity) was “did not occur”. The “% of Control Neutral Red Dye Uptake” value ([3]; human, hep-g2 cells, 216 h, 100 µM) was 29 ± 1 % of Control, the “activity against HBV-induced virion DNA and HBeAg syntheses” value (Hepatitis B virus [4]; 10 μM, in words) was “potent inhibitory activity” and the activity at 10 µM (Hepatitis B virus [4]; read-out: Relative Level of HBeAg) was 30%. For the same compound, the activity at 10 µM (Hepatitis B virus [4]; read-out: Relative Level of HBsAg) was 115%, the activity at 10 µM (Hepatitis B virus [4]; read-out: Relative Level of Virion DNA) was 1% and the “HBV Virion DNA” value (Hepatitis B virus [5]; 0.1 μM, Day 0) was 71 pg/ml Culture Medium and 55 pg/ml Culture Medium and 72 pg/ml Culture Medium and 62 pg/ml Culture Medium. The “HBV Virion DNA” value (Hepatitis B virus [5]; 0.1 μM, Day 3) was 72 pg/ml Culture Medium and 56 pg/ml Culture Medium and 88 pg/ml Culture Medium and 75 pg/ml Culture Medium, the “HBV Virion DNA” value (Hepatitis B virus [5]; 0.1 μM, Day 6) was 62 pg/ml Culture Medium and 69 pg/ml Culture Medium and 55 pg/ml Culture Medium and the “HBV Virion DNA” value (Hepatitis B virus [5]; 0.1 μM, Day 9) was 75 pg/ml Culture Medium and 65 pg/ml Culture Medium and 77 pg/ml Culture Medium and 57 pg/ml Culture Medium. The “Intracellular HBV DNA, Mono (episomal 3.2-3.8 Kb HBV genomes)” value (“Intracellular HBV DNA, Mono” below) (Hepatitis B virus [5]; 0.1 μM) was 2.2 pg/μg Cell DNA and 2.3 pg/μg Cell DNA and 2.5 pg/μg Cell DNA and 2.6 pg/μg Cell DNA, the “Intracellular HBV DNA, RI (replication intermediates)” value (shortened to “Intracellular HBV DNA, RI”) (Hepatitis B virus [5]; 0.1 μM) was 60 pg/μg Cell DNA and 61 pg/μg Cell DNA and 74 pg/μg Cell DNA and 79 pg/μg Cell DNA and the “HBV Virion DNA” value (Hepatitis B virus [5]; 1 μM, Day 0) was 56 pg/ml Culture Medium and 51 pg/ml Culture Medium and 66 pg/ml Culture Medium and 79 pg/ml Culture Medium. For the same compound, the “HBV Virion DNA” value (Hepatitis B virus [5]; 1 μM, Day 3) was 56 pg/ml Culture Medium and 58 pg/ml Culture Medium and 60 pg/ml Culture Medium and 68 pg/ml Culture Medium, the “HBV Virion DNA” value (Hepatitis B virus [5]; 1 μM, Day 6) was 38 pg/ml Culture Medium and 41 pg/ml Culture Medium and 43 pg/ml Culture Medium and 44 pg/ml Culture Medium and the “HBV Virion DNA” value (Hepatitis B virus [5]; 1 μM, Day 9) was 10 pg/ml Culture Medium and 13 pg/ml Culture Medium and 11 pg/ml Culture Medium and 18 pg/ml Culture Medium. For the same compound, the “Intracellular HBV DNA, Mono” value (Hepatitis B virus [5]; 1 μM) was 2.3 pg/μg Cell DNA and 2.4 pg/μg Cell DNA and 2.2 pg/μg Cell DNA and 2.1 pg/μg Cell DNA, the “Intracellular HBV DNA, RI” value (Hepatitis B virus [5]; 1 μM) was 24 pg/μg Cell DNA and 20 pg/μg Cell DNA and 25 pg/μg Cell DNA and 30 pg/μg Cell DNA and the “HBV Virion DNA” value (Hepatitis B virus [5]; 10 μM, Day 0) was 73 pg/ml Culture Medium and 53 pg/ml Culture Medium and 56 pg/ml Culture Medium and 77 pg/ml Culture Medium. The “HBV Virion DNA” value (Hepatitis B virus [5]; 10 μM, Day 3) was 49 pg/ml Culture Medium and 55 pg/ml Culture Medium and 57 pg/ml Culture Medium and 50 pg/ml Culture Medium, the “HBV Virion DNA” value (Hepatitis B virus [5]; 10 μM, Day 6) was 21 pg/ml Culture Medium and 22 pg/ml Culture Medium and 19 pg/ml Culture Medium and 24 pg/ml Culture Medium and the “Intracellular HBV DNA, Mono” value (Hepatitis B virus [5]; 10 μM) was 2.6 pg/μg Cell DNA and 2.4 pg/μg Cell DNA and 2.2 pg/μg Cell DNA and 2.7 pg/μg Cell DNA. The “Intracellular HBV DNA, RI” value (Hepatitis B virus [5]; 10 μM) was 9 pg/μg Cell DNA and 8 pg/μg Cell DNA and 6 pg/μg Cell DNA, the “inhibition of HBV virion DNA and intracellular HBV RI DNA levels” value (Hepatitis B virus [5]; in words, versus ddC) was “markedly inhibited; also recorded: substantially inhibited” and the viability at 216 h, 3 µM ([6]; 3 μM, nine days, read-out: % of Control Neutral Red Dye Uptake) was 99 ± 3%. For the same compound, the viability at 216 h, 10 µM ([6]; 10 μM, nine days, read-out: % of Control Neutral Red Dye Uptake) was 99 ± 4%, the viability at 216 h, 30 µM ([6]; 30 μM, nine days, read-out: % of Control Neutral Red Dye Uptake) was 60 ± 4% and the cytotoxicity at 216 h, 30 µM ([6]; 30 μM, read-out: inhibition of neutral red dye uptake) was 40%. It also gave a viability at 216 h, 100 µM ([6]; 100 μM, nine days, read-out: % of Control Neutral Red Dye Uptake) of 29 ± 1%.
For `Cc1cn([C@H]2C[C@H](N=[N+]=[N-])[C@@H](CO)O2)c(=O)[nH]c1=O` [AZT, 3'-azido-3'deoxythymidine, reference compound], the IC50 [7] was 0.43 µg/mL (≈ 1.61 µM), the IC50 [8] was 0.27 µg/mL (≈ 1.01 µM) and the “inhibition of retrovirus-induced splenomegaly” value (Friend-Leukemia virus; 12.5 mg/kg/day intraperitoneally) was 10%. For the same compound, the “% of Control Splenomegaly” value (Friend-Leukemia virus; 12.5 mg/kg/day, daily treatment) was 10 % of Control.
